Type in all cases: in vivo
For one experiment, the system named is Helminthosporium maydis. The experiment can be described thus: Southern corn leaf blight control on sprayed corn seedlings (Example 83). The settings on record: Bipolaris maydis, 192 h, 100 ppm spray, day before inoculation. The procedure:
The compounds of the previous examples were again dissolved in acetone in an amount equal to 6% of the final volume and then suspended at a concentration of 100 ppm in purified water containing 250 ppm of the surfactant TREM 014 (polyhydric alcohol esters). These suspensions were sprayed to the point of run-off on corn seedlings. The following day, the plants were inoculated with a spore suspension of Helminthosporium maydis, causal agent of southern corn leaf blight, and incubated in a saturated humidity chamber at 20° for 24 hours and then in a growth room for an additional 7 days, when disease ratings were made. Treated plants from successful treatments had few or no lesions while the untreated plants had numerous lesions on each leaf. Phytotoxicity expressed as growth reduction was observed on some of the plants in association with disease control.

The subject of another experiment is Venturia inaequalis. The experiment is described as follows: Apple scab control on sprayed apple seedlings (Example 82). Particulars: Venturia inaequalis, 100 ppm spray, day before inoculation. The procedure:
These suspensions were sprayed to the point of run-off on apple seedlings. The following day, the plants were inoculated with a spore suspension of the fungus Venturia inaequalis, causal agent of apple scab, and incubated in a saturated humidity chamber at 20° for 24 hours and then in a growth room for an additional 10-12 days. Treated plants from successful treatments had fewer apple scab lesions when compared to untreated plants which were covered with scab lesions. Phytotoxicity expressed as growth reduction was observed on some of the plants in association with disease control.

Experiment [1] deals with Puccinia recondita var. tritici. The experiment is described as follows: Wheat leaf rust control on sprayed wheat seedlings (Example 79). The settings on record: Puccinia recondita, 168 h; for pest or weed control at 100 ppm: 100 ppm spray, day before inoculation. The procedure: The compounds of this invention were dissolved in acetone in an amount equal to 6% of the final volume and then suspended at a concentration of 100 ppm in purified water containing 250 ppm of the surfactant TREM 014 (polyhydric alcohol esters). These suspensions were sprayed to the point of run-off on wheat seedlings. The following day, the plants were inoculated with a spore suspension of Puccinia recondita var. tritici, causal agent of wheat leaf rust, and incubated in a saturated humidity chamber at 20° for 24 hours and then in a growth room for an additional 7 days, when disease ratings were made. Treated plants from successful treatments had few or no rust pustules while the untreated plants had numerous rust pustules on each leaf.

Another experiment concerns Phytophthora infestans. The experiment can be described thus: whole plant or invertebrate. Particulars: Phytophthora infestans, in Solanum lycopersicum, 168 h, read-out: % Control of Tomato Late Blight, 100 ppm spray, day before inoculation.
A further experiment relates to Pyricularia oryzae. The experiment can be described thus: whole plant or invertebrate. The settings on record: Pyricularia oryzae, 168 h, read-out: % Control of Rice Blast, 100 ppm spray, day before inoculation.
Another experiment has as its system Erysiphe cichoracearum. The experiment can be described thus: Cucumber powdery mildew control on sprayed cucumber seedlings (Example 80). Particulars: Golovinomyces cichoracearum, 168 h, 100 ppm spray, day before inoculation. As to the method:
These suspensions were sprayed to the point of run-off, on cucumber seedlings. The following day, the plants were inoculated with a spore suspension of the fungus Erysiphe cichoracearum, causal agent of cucumber powdery mildew, and incubated in a growth room for 7 days. Disease ratings were then made. Treated plants from successful treatments had little or no powdery mildew in contrast to untreated plants which were covered with powdery mildew. Phytotoxicity in the form of growth reduction or hormonal effects was observed on some of the plants in association with disease control.

Another experiment deals with Cercospora arachidicola. The experiment is described as follows: Peanut early leafspot control on sprayed peanut seedlings (Example 84). Particulars: Mycosphaerella arachidis, 360 h, read-out: % Control Peanut Easly Leafspot; for pest or weed control at 100 ppm: 100 ppm spray, day before inoculation. As to the method: These suspensions were sprayed to the point of run-off on peanut seedlings. The following day, the plants were inoculated with a spore suspension of Cercospora arachidicola, causal agent of peanut early leafspot, and incubated in a saturated humidity chamber at 27° for 24 hours and then in a growth room for an additional 14 days, when disease ratings were made. Treated plants from successful treatments had few or no leafspots while the untreated plants had numerous leafspots.

The test system of another experiment is Rhizoctonia solani. The experiment can be described thus: Rice sheath blight control on sprayed rice seedlings (Example 87). The settings on record: Rhizoctonia solani, 168 h, 100 ppm spray, day before inoculation. The procedure:
The compounds of the previous examples were again dissolved in acetone in an amount equal to 6% of the final volume and then suspended at a concentration of 100 ppm in purified water containing 250 ppm of the surfactant TREM 014 (polyhydric alcohol esters). This suspension was sprayed to the point of run-off on rice seedlings. The following day, the plants were inoculated with a mixture of bran and the mycelium of Rhizoctonia solani, causal agent of sheath blight of rice, and incubated in a growth room for 7 days. Disease ratings were then made. Treated plants from successful treatments had little sheath blight in contrast to untreated plants which were covered with sheath blight.

With `C[Si](C)(Cn1cncn1)c1cccc(Cl)c1` [(3-Chlorophenyl)dimethyl(1H-1,2,4-triazol-1-ylmethyl)silane], the pest or weed control at 100 ppm in the experiment on Helminthosporium maydis amounted to 0%; in the experiment on Venturia inaequalis, 60%; in experiment [1], 0%; in the experiment with Phytophthora infestans, 0%; in the experiment on Pyricularia oryzae, 0%; in the experiment on Erysiphe cichoracearum it was 0%. The pest or weed control at 100 ppm with Cercospora arachidicola and with Rhizoctonia solani was 0% in each case.
For `C[Si](C)(Cn1cncn1)c1ccc(-c2ccc(Br)cc2)cc1` [(4'-Bromo-1,1'-biphenyl-4-yl)dimethyl(1H-1,2,4-triazol-1-ylmethyl)silane], the pest or weed control at 100 ppm was found to be 70% in the experiment with Helminthosporium maydis; 100% in the experiment with Venturia inaequalis; 100% in experiment [1]; 30% in the experiment on Phytophthora infestans; 90% with Pyricularia oryzae; 100% with Erysiphe cichoracearum. The pest or weed control at 100 ppm with Cercospora arachidicola came to 100%; in the experiment on Rhizoctonia solani, 90%.
As to `CCCC[Si](C)(Cn1cncn1)c1ccccc1` (centres unmarked) [Butyl(methyl)phenyl(1H-1,2,4-triazol-1-ylmethyl)silane], the pest or weed control at 100 ppm with Helminthosporium maydis turned out to be 0%; in the experiment on Venturia inaequalis, 80%; in experiment [1], 0%; with Phytophthora infestans, 0%; in the experiment with Pyricularia oryzae, 90%; in the experiment on Erysiphe cichoracearum it was 100%. Moreover, the pest or weed control at 100 ppm with Cercospora arachidicola is 0%; with Rhizoctonia solani, 90%.
As for `C[Si](C)(Cn1cncn1)c1cccc(C(F)(F)F)c1` [Dimethyl(1H-1,2,4-triazol-1-ylmethyl)(3-trifluoromethylphenyl)silane], the pest or weed control at 100 ppm with Helminthosporium maydis was 0%; in the experiment with Venturia inaequalis, 0%; in experiment [1], 0%; with Phytophthora infestans, 0%; in the experiment on Pyricularia oryzae it was 0%; in the experiment on Erysiphe cichoracearum it was 100%. For the same molecule, the pest or weed control at 100 ppm with Cercospora arachidicola and with Rhizoctonia solani was 0% each time.
In the case of `C[Si](C)(Cn1cncn1)c1ccc(S(C)(=O)=O)cc1` [Dimethyl(4-methylsulfonylphenyl)(1H-1,2,4-triazol-1-ylmethyl)silane], the pest or weed control at 100 ppm in the experiment on Helminthosporium maydis came to 0%; in the experiment with Venturia inaequalis, 0%; in experiment [1], 0%; with Phytophthora infestans, 0%; in the experiment on Pyricularia oryzae, 70%; in the experiment with Erysiphe cichoracearum it was 0%. The pest or weed control at 100 ppm in the experiment on Cercospora arachidicola and in the experiment with Rhizoctonia solani was 0% each time.
Regarding `CSc1ccc([Si](C)(C)Cn2cncn2)cc1` [Dimethyl(4-methylthiophenyl)(1H-1,2,4-triazol-1-ylmethyl)silane], the pest or weed control at 100 ppm is 80% with Helminthosporium maydis; 60% in the experiment with Venturia inaequalis; 0% in experiment [1]; 0% with Phytophthora infestans; 0% with Pyricularia oryzae; 100% in the experiment with Erysiphe cichoracearum. Also, the pest or weed control at 100 ppm with Cercospora arachidicola and with Rhizoctonia solani was 0% in each case.
Turning to `CCCCCCCCCCCCCCCCCC[Si](C)(C)Cn1cncn1` [Dimethyl(octadecyl)(1H-1,2,4-triazol-1-ylmethyl)silane], the pest or weed control at 100 ppm was found to be 0% with Helminthosporium maydis; 60% in the experiment with Venturia inaequalis; 0% in experiment [1]; 0% with Phytophthora infestans; 0% in the experiment on Pyricularia oryzae; 0% in the experiment with Erysiphe cichoracearum. The pest or weed control at 100 ppm in the experiment on Cercospora arachidicola and in the experiment with Rhizoctonia solani was 0% throughout.
`CC(C)O[Si](C)(Cn1cncn1)c1ccccc1` (centres unmarked) [Methyl(phenyl)(2-propoxy)(1H-1,2,4-triazol-1-ylmethyl)silane]: the pest or weed control at 100 ppm in the experiment on Helminthosporium maydis was determined as 0%; in the experiment on Venturia inaequalis, 0%; in experiment [1] it was 0%; in the experiment with Phytophthora infestans it was 0%; in the experiment with Pyricularia oryzae, 0%; in the experiment on Erysiphe cichoracearum it was 100%. In addition, the pest or weed control at 100 ppm in the experiment on Cercospora arachidicola and in the experiment on Rhizoctonia solani was 0% throughout.
For the molecule `Cc1ccc([Si](C)(Cn2cncn2)c2ccc(C)cc2)cc1` [Methyl[bis(4-methylphenyl)](1H-1,2,4-triazol-1-ylmethyl)silane], the pest or weed control at 100 ppm in the experiment with Helminthosporium maydis came out at 0%; in the experiment on Venturia inaequalis, 0%; in experiment [1], 0%; in the experiment on Phytophthora infestans, 0%; in the experiment with Pyricularia oryzae, 80%; with Erysiphe cichoracearum it was 0%. Also, the pest or weed control at 100 ppm in the experiment with Cercospora arachidicola was determined as 0%; in the experiment with Rhizoctonia solani, 30%.
With `Fc1ccc([Si](Cn2cncn2)(O[Si](Cn2cncn2)(c2ccc(F)cc2)c2ccc(F)cc2)c2ccc(F)cc2)cc1` [Oxybis[bis(4-fluorophenyl)(1H-1,2,4-triazol-1-ylmethyl)silane]], the pest or weed control at 100 ppm was 97% with Helminthosporium maydis; 100% in the experiment with Venturia inaequalis; 100% in experiment [1]; 0% in the experiment on Phytophthora infestans; 50% in the experiment on Pyricularia oryzae; 100% with Erysiphe cichoracearum. This molecule also registered a pest or weed control at 100 ppm in the experiment with Rhizoctonia solani of 0%. In addition, the pest or weed control at 20 ppm in the experiment with Cercospora arachidicola (applied at 20 ppm) was 93%.
Take `CC(C)(C)c1ccc([Si](C)(C)Cn2cncn2)cc1` [[4-(1,1-Dimethylethyl)phenyl]dimethyl(1H-1,2,4-triazol-1-ylmethyl)silane]: the pest or weed control at 100 ppm in the experiment on Helminthosporium maydis came to 60%; in the experiment with Venturia inaequalis, 0%; in the experiment on Phytophthora infestans, 0%; with Pyricularia oryzae, 90%; with Erysiphe cichoracearum, 0%; in the experiment with Cercospora arachidicola it was 35%. Moreover, the pest or weed control at 100 ppm with Rhizoctonia solani was found to be 90%. In addition, the pest or weed control at 200 ppm in experiment [1] (applied at 200 ppm) amounted to 80%.
Regarding `C[Si](Cn1cncn1)(c1ccccc1Cl)c1ccccc1Cl` [[bis(2-Chlorophenyl)]methyl(1H-1,2,4-triazol-1-ylmethyl)silane], the pest or weed control at 100 ppm in the experiment on Helminthosporium maydis came to 60%; in the experiment on Venturia inaequalis it was 40%; in experiment [1], 100%; with Phytophthora infestans it was 0%; in the experiment with Pyricularia oryzae, 90%; with Erysiphe cichoracearum it was 100%. Moreover, the figures for the pest or weed control at 100 ppm in the experiment with Cercospora arachidicola and in the experiment with Rhizoctonia solani were 100% and 60%, respectively.
Regarding `COc1ccc([Si](C)(Cn2cncn2)c2ccc(OC)cc2)cc1` [[bis(4-Methoxyphenyl)]methyl(1H-1,2,4-triazol-1-ylmethyl)silane], the pest or weed control at 100 ppm with Helminthosporium maydis was determined as 90%; in the experiment on Venturia inaequalis it was 0%; in experiment [1], 0%; in the experiment with Phytophthora infestans it was 0%; in the experiment with Pyricularia oryzae it was 0%; in the experiment on Erysiphe cichoracearum, 0%. The pest or weed control at 100 ppm with Cercospora arachidicola was found to be 30%; in the experiment with Rhizoctonia solani, 80%.
